The values that follow come from patent US20090209638A1, “TREATMENT FOR DEPRESSIVE DISORDERS” (priority 2006, published 2009).

Data set [1] deals with Rats. In words: Rat Forced Swim Test (behavioral despair test). It is filed as in vivo. As to conditions: for decrease in immobility time: dark phase. On the procedure:
Protocol: Animals were tested in the forced swim test using the protocol originally described by Porsolt et al (Eur. J. Pharmacol., 47, 379-391,1978). Rats were individually placed in a cylinder (Height=40 cm, Diameter=20 cm) containing 13 cm water (25° C.) for 15 minutes on the first day of the experiment (Session 1) and were then put back in the water 24 hours later for a 5 minute test (Session 2). The duration of immobility during the 5 minute test was measured. Six rats were studied per group. The test was performed blind. Session 1 and Session 2 were performed either during the light cycle, i.e. between 2.5 and 5.5 hours after lights-on, or during the dark cycle, i.e. between 2.5 and 5.5 hours after lights-off. The tests during the light cycle were therefore performed between 9:30 am and 12:30 pm, whereas the tests during the dark cycle, because of the light cycle shift, were performed between 14:30 pm and 17:30 pm.
To permit the 2 phases of the experiment (light phase and dark phase) to be performed on the same day by the same laboratory technician, the animals to be tested during the dark phase were submitted to a light cycle shift 12 days prior to the first session of the forced swim test whereby the light/dark cycle was advanced 7 hours (lights-on: 0:00 am, lights-off: 12:00 pm). The 12-day period was estimated to be sufficient for the dark-cycle animals to adjust to the shift. To habituate the rats to the light cycle shift, the dark-cycle animals were submitted to the shift 12 days prior to Session 1. To ensure otherwise similar conditions between the light-cycle and dark-cycle animals, all animals to be used in the experiment were from the same delivery batch and were placed in their experimental living cages at the same time, i.e. 12 days before Session 1.
Testing during the light phase was performed under normal laboratory illumination, and testing during the dark phase was performed under infrared illumination. MA-1, agomelatine, and melatonin were evaluated at 2 oral (p.o.) doses each, administered twice (24 hours and 1 hour before Session 2). The first administration was given immediately after Session 1. Imipramine (64 mg/kg p.o.), administered twice under the same experimental conditions, was used as reference substance.

Data set [2] has as its system cerebellar cGMP. Description: Stress-induced cerebellar cGMP elevation. Type of data set: in vivo, Rats. To be noted: for activity in the stress-induced cGMP assay: data not shown, levels similar to what was observed for MA-1. As to the method: Protocol: Animals were placed into a shock chamber with a steel grid floor and shocked at 1 mA for 10 seconds. One minute following the stressor, the animals were placed into a plastic restraint tube and sacrificed by microwave irradiation (1.8 sec at 3.5 kW). The cerebellum was rapidly removed, snap frozen, and stored at −80° C. prior to the cGMP assay. Non-stressed animals were taken directly from their cages and sacrificed by microwave irradiation and tissues were processed in a similar manner. Drug dosing was performed 30-60 min prior to foot-shock stress. For the cGMP assay, the tissue was homogenized in 2 ml of 1% perchloric acid using a Brinkman Polytron at setting #5 for ˜15 sec each and placed on ice until all samples were homogenized. Samples were then placed in an 85C water bath for 5 min, centrifuged at 2500G for 15 min, and ˜0.5 ml of the supernatant was collected for analysis. Supernatants were diluted 1:20 in sodium acetate buffer according to the directions of the manufacturer of the 1251-cGMP flashplates. Diluted samples were incubated overnight in flashplate wells with 1251-cGMP, assayed on a gamma-counter plate reader, and converted to pmol cGMP/mg tissue using a standard curve generated in the same experiment.

Data set [3] deals with Mice. In words: Mouse Forced Swim Test. It is filed as in vivo. On the procedure:
Protocol: Animals were maintained on a 12:12 LD cycle with lights on at 0600 h. Mice were placed into the testing room at least 1 h prior to the start of the test. Vehicle, amitriptyline and MA-1 were administered under one of three conditions: A) acute treatment, animals dosed 30 minutes prior to testing; B) 4 day subchronic AM treatment, with dosing occurring during the early morning period (0900-1100 h), with the final dose occurring 30 min prior to testing; and C) subchronic PM treatment with dosing occurring during the evening period (1730-1800 h, right before lights off), and the forced swim test took place the following morning. Animals were tested in the forced swim test using a modification of the protocol originally described by Porsolt et al. (1978). Mice were placed into 1 L beakers (KIMAX #14005) filled with 800 ml of water (20-22° C.) for a 7 min swim period. Animals were only scored for the last 5 minutes of the test and were assigned either a “0” if they were actively swimming or “1” if they were immobile, except for small movements needed to keep afloat. During the 5 minute scoring period, there are ten 30 sec intervals scored for a total possible score of 0-10 for each mouse. Data was reported as median (interquartile range). Each study was run independently with separate groups of naive mice. Data were analyzed using Statview (SAS, Cary, N.C.) with a Kruskal-Wallis analysis, followed by Mann-Whitney U-test with the significance level set at p<0.05.

A short description of data set [4]: Solubility of MA-1. Type of data set: physicochemical.
Data set [5] deals with Rats. Description: Modified forced swim test in rats (study not reported). Type of data set: in vivo, rat. To be noted: 5 mg/kg and 10 mg/kg.
For data set [6], the target named is T1, Melatonin-2 (MT2) receptor (Homo sapiens, UniProt P49286).
T1 sequence (P49286 1-362): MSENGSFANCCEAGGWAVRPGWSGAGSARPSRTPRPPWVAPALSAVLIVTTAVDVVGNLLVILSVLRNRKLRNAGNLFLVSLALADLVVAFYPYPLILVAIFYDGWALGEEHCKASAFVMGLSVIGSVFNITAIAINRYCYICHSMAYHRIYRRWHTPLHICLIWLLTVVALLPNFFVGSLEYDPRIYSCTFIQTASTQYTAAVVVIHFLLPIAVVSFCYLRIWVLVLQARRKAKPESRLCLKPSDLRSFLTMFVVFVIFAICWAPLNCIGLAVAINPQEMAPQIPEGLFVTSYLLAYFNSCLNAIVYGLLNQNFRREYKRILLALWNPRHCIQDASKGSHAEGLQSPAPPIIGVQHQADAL
To be noted: cited from earlier work.

Data set [7] has as its target Melatonin-1 (MT1) receptor (Homo sapiens, UniProt P48039). To be noted: cited from earlier work.
Where [8] appears, read: dark cycle, 64 mg/kg p.o. −24 h and −60 min.
[9] abbreviates: light cycle, 64 mg/kg p.o. −24 h and −60 min.
[10] abbreviates: dark cycle, 10 mg/kg p.o. −24 h and −60 min.
[11] abbreviates: dark cycle, 50 mg/kg p.o. −24 h and −60 min.
Setting [12] is: light cycle, 10 mg/kg p.o. −24 h and −60 min.
[13] abbreviates: light cycle, 50 mg/kg p.o. −24 h and −60 min.
The mark [14] stands for this setting: condition A: acute treatment, testing 30 minute post-dose.
Setting [15] is: condition B: 4-day sub-chronic AM dosing, testing 30 minutes following final dose.
[16] abbreviates: condition C: 4-day sub-chronic PM dosing, testing the following morning.
[17] abbreviates: dark cycle, 1 mg/kg p.o. −24 h and −60 min.
[18] abbreviates: light cycle, 1 mg/kg p.o. −24 h and −60 min.

Sequence of Melatonin-1 (MT1) receptor (P48039 whole entry): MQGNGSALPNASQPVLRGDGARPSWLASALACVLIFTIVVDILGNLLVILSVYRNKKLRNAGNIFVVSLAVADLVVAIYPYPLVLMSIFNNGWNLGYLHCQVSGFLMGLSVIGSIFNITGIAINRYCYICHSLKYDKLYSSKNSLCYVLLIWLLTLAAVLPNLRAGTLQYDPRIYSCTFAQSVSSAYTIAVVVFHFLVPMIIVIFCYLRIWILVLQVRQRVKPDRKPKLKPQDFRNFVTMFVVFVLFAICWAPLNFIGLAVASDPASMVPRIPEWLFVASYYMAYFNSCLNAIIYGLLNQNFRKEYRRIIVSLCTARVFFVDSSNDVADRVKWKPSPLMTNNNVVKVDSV

As to `CN(C)CCCN1c2ccccc2CCc2ccccc21` [Imipramine], the “DURATION OF IMMOBILITY % change from control” value in data set [1] (setting [8]) was −70%; in data set [1] (setting [9]), −71%. For the same molecule, the figures for the “DURATION OF IMMOBILITY mean ± s.e.m.” value in data set [1] (setting [8]) and in data set [1] (setting [9]) were 63.0 ± 11.1 s and 49.5 ± 10.6 s, respectively.

`COc1ccc2cccc(CCNC(C)=O)c2c1` [agomelatine]: in data set [2], the “activity in the stress-induced cGMP assay” value was “shown activity”. In addition, the “DURATION OF IMMOBILITY % change from control” value in data set [1] (setting [10]) is −60%; in data set [1] (setting [11]) it was −33%; in data set [1] (setting [12]), −42%; in data set [1] (setting [13]) it was “+13%”. The “DURATION OF IMMOBILITY mean ± s.e.m.” value was 84.8 ± 8.2 s in data set [1] (setting [10]), 140.2 ± 19.1 s in data set [1] (setting [11]), 97.8 ± 13.5 s in data set [1] (setting [12]) and 191.0 ± 9.4 NS s in data set [1] (setting [13]). The “decrease in immobility time” value in data set [1] (10 mg/kg) is on record as 60%; in data set [1] (50 mg/kg) it was 33%.

For the molecule `CCC(=O)NC[C@@H]1C[C@H]1c1cccc2c1CCO2` [MA-1, (1R-trans)-N-[[2-(2,3-dihydro-4-benzofuranyl)cyclopropyl]methyl]propanamide], the “activity in mouse forced swim model” value in data set [3] (setting [14]), in data set [3] (setting [15]) and in data set [3] (setting [16]) was “did not demonstrate activity” throughout. Besides, the “effect of pH on aqueous solubility” value in data set [4] was “practically unaffected by pH”. Moreover, the solubility result in data set [4] (in 95% ethanol, methanol, acetonitrile, ethyl acetate, isopropanol, polyethylene glycols (PEG-300 and PEG-400)) was “very soluble or freely soluble”; in data set [4] (in water), “only slightly soluble”. For the same molecule, the “native pH of a saturated solution in water” value in data set [4] (saturated solution in water) is reported as 8.5. In data set [2] (rats, electric shock 1 mA 10 s, doses of 0.1-10 mg/kg, dosed 30-60 min prior to foot-shock, no dose-responsiveness), the “attenuation of shock-induced increase in cerebellar cGMP levels” value is approximately 50%. For the same molecule, the “DURATION OF IMMOBILITY % change from control” value in data set [1] (setting [17]) is −37%; in data set [1] (setting [10]) it was −41%; in data set [1] (setting [18]) it was −14%; in data set [1] (setting [12]) it was −25%. The “DURATION OF IMMOBILITY mean ± s.e.m.” value was 133.0 ± 6.6 s in data set [1] (setting [17]), 124.8 ± 18.8 s in data set [1] (setting [10]), 145.3 ± 26.0 NS s in data set [1] (setting [18]) and 126.3 ± 26.9 NS s in data set [1] (setting [12]). For the same molecule, the results for the “decrease in immobility time” value in data set [1] (1 mg/kg) and in data set [1] (10 mg/kg) were 37% and 41%, respectively. Also, the “effects on immobility, swimming, or climbing statistically different from vehicle” value in data set [5] was “did not show effects”. The affinity result in data set [6] and in data set [7] was “high affinity” each time.

Turning to `CN(C)CCC=C1c2ccccc2CCc2ccccc21` [Amitriptyline], the “activity in mouse forced swim model” value in data set [3] (setting [14]) is listed as “active”; in data set [3] (setting [15]), “active”; in data set [3] (setting [16]) it was “did not show activity”.

For the molecule `COc1ccc2[nH]cc(CCNC(C)=O)c2c1` [Melatonin, melatonin], in data set [2], the “activity in the stress-induced cGMP assay” value was “shown activity”. Also, the “DURATION OF IMMOBILITY % change from control” value in data set [1] (setting [10]) is reported as −37%; in data set [1] (setting [11]) it was −21%; in data set [1] (setting [12]) it was −40%; in data set [1] (setting [13]), 0%. The “DURATION OF IMMOBILITY mean ± s.e.m.” value in data set [1] (setting [10]) is 132.8 ± 16.5 s; in data set [1] (setting [11]), 166.8 ± 16.6 s; in data set [1] (setting [12]) it was 101.3 ± 18.8 s; in data set [1] (setting [13]) it was 167.7 ± 10.8 NS s.
